PubChem BioAssay AID292 (DTP/NCI, 2004)
Several values for one entry are separate records, joined by “and”; a condition that tells them apart may be missing. Identical values can stand only once. Toxic doses and inconclusive results are not listed.

System: B6C3F1 mice, ip Sarcoma M5076, median survival T/C
Assay: NCI In Vivo Anticancer Drug Screen. Data for tumor model Sarcoma M5076 (intraperitoneal) in B6C3F1 mice
Conditions: endpoint: median survival time, higher = longer survival
Procedure, shortened: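 Mice carrying the transplanted tumour received compound treatment. Survival was recorded, and each value is the treated-group measurement divided by that of the vehicle-dosed control group.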

[1] = dose: 25.0 mg/kg/injection, schedule: Q04DX004 (ip), vehicle: water
[2] = dose: 50.0 mg/kg/injection, schedule: Q04DX004 (ip), vehicle: water
[3] = dose: 25.0 mg/kg/injection, schedule: Q04DX004 (ip), vehicle: saline with Tween-80
[4] = dose: 50.0 mg/kg/injection, schedule: Q04DX004 (ip), vehicle: saline with Tween-80
[5] = dose: 100.0 mg/kg/injection, schedule: Q04DX004 (ip), vehicle: saline with Tween-80
[6] = dose: 100.0 mg/kg/injection, schedule: Q04DX004 (ip), vehicle: Klucel (hydroxypropylcellulose) (HPC)

With CSC1SCC2C(=O)N(C)C(C(C)C)C(=O)OCC(NC(=O)c3cnc4ccccc4n3)C(=O)NC(C)C(=O)N(C)C1C(=O)N(C)C(C(C)C)C(=O)OCC(NC(=O)c1cnc3ccccc3n1)C(=O)NC(C)C(=O)N2C (stereo not drawn) the T/C (dose: 12.5 micrograms/kg/injection, schedule: Q04DX004 (ip), vehicle: saline with Tween-80) was 100 % of control, the T/C (dose: 25.0 micrograms/kg/injection, schedule: Q04DX004 (ip), vehicle: saline with Tween-80) was 104 % of control and the T/C (dose: 50.0 micrograms/kg/injection, schedule: Q04DX004 (ip), vehicle: saline with Tween-80) was 110 % of control and 111 % of control. For the same compound, the T/C (dose: 100.0 micrograms/kg/injection, schedule: Q04DX004 (ip), vehicle: saline with Tween-80) was 114 % of control and the T/C (dose: 200.0 micrograms/kg/injection, schedule: Q04DX004 (ip), vehicle: saline with Tween-80) was 123 % of control.
O=C1C=CC(O)N1 (stereo not drawn) was tested, and the T/C (dose: 10.0 mg/kg/injection, schedule: Q01DX009 (ip), vehicle: water) was 95 % of control, the T/C (dose: 20.0 mg/kg/injection, schedule: Q01DX009 (ip), vehicle: water) was 101 % of control and the T/C (dose: 40.0 mg/kg/injection, schedule: Q01DX009 (ip), vehicle: water) was 101 % of control. The T/C (dose: 80.0 mg/kg/injection, schedule: Q01DX009 (ip), vehicle: water) was 101 % of control and the T/C (dose: 160.0 mg/kg/injection, schedule: Q01DX009 (ip), vehicle: water) was 94 % of control.
O=C1C2C3C=CC(C2C(=O)N1CO)C1C2C(=O)N(CO)C(=O)C2C31 (stereo not drawn) was tested, and the T/C (dose: 12.5 mg/kg/injection, schedule: Q04DX004 (ip), vehicle: water) was 103 % of control, the T/C [1] was 103 % of control and the T/C [2] was 98 % of control.
For CCc1n[nH]c(CC)c1CCCCCCOc1ccc(OC)cc1Cl, the T/C [3] was 106 % of control, the T/C (dose: 37.5 mg/kg/injection, schedule: Q04DX004 (ip), vehicle: saline with Tween-80) was 100 % of control and the T/C [4] was 107 % of control. For the same compound, the T/C (dose: 75.0 mg/kg/injection, schedule: Q04DX004 (ip), vehicle: saline with Tween-80) was 91 % of control, the T/C [5] was 97 % of control and the T/C (dose: 200.0 mg/kg/injection, schedule: Q04DX004 (ip), vehicle: saline with Tween-80) was 91 % of control.
Cc1c2ccccc2c(C)c2c1cc(C(=O)O)c1ccccc12 was tested, and the T/C (dose: 12.5 mg/kg/injection, schedule: Q04DX004 (ip), vehicle: sodium bicarbonate) was 113 % of control, the T/C (dose: 25.0 mg/kg/injection, schedule: Q04DX004 (ip), vehicle: sodium bicarbonate) was 113 % of control and the T/C (dose: 50.0 mg/kg/injection, schedule: Q04DX004 (ip), vehicle: sodium bicarbonate) was 113 % of control. For the same compound, the T/C (dose: 200.0 mg/kg/injection, schedule: Q04DX004 (ip), vehicle: sodium bicarbonate) was 124 % of control.
In the case of O=C(Nc1ccc([N+](=O)[O-])cc1)C1C(=O)C(=O)N(c2ccc([N+](=O)[O-])cc2)C1=O (stereo not drawn), the T/C (dose: 50.0 mg/kg/injection, schedule: Q04DX004 (ip), vehicle: Klucel + Tween-80) is reported as 96 % of control, the T/C (dose: 100.0 mg/kg/injection, schedule: Q04DX004 (ip), vehicle: Klucel + Tween-80) is reported as 104 % of control and the T/C (dose: 200.0 mg/kg/injection, schedule: Q04DX004 (ip), vehicle: Klucel + Tween-80) is reported as 92 % of control.
For CC(C)NCC(O)CC(c1ccccc1)c1ccccc1 (stereo not drawn), the T/C (dose: 12.5 mg/kg/injection, schedule: Q04DX004 (ip), vehicle: saline with Tween-80) was 95 % of control, the T/C [3] was 101 % of control and the T/C [4] was 98 % of control. For the same compound, the T/C [5] was 91 % of control.
NCCCN=c1ccc2c3c1c(O)c1c(O)ccc(=O)c1c3[nH]n2CCNCCO was tested, and the T/C (dose: 8.0 mg/kg/injection, schedule: Q04DX004 (ip), vehicle: water) was 171 % of control and the T/C (dose: 16.0 mg/kg/injection, schedule: Q04DX004 (ip), vehicle: water) was 186 % of control.
With Cc1c(O)/c(=C\O)c2nc3c(=O)ccc(C(=O)NCCN(C)C)c3[nH]c2c1=O the T/C [1] was 100 % of control, the T/C [2] was 107 % of control and the T/C (dose: 100.0 mg/kg/injection, schedule: Q04DX004 (ip), vehicle: water) was 107 % of control. For the same compound, the T/C (dose: 200.0 mg/kg/injection, schedule: Q04DX004 (ip), vehicle: water) was 112 % of control.
In the case of COc1ccc(C(N)=O)cc1N=NN(C)C, the T/C (dose: 12.5 mg/kg/injection, schedule: Q04DX004 (ip), vehicle: Klucel (hydroxypropylcellulose) (HPC)) is reported as 118 % of control and 121 % of control and the T/C [6] is reported as 154 % of control and 179 % of control.
For C=C(c1ccc(OC)c(OC)c1)c1nccc2cc(OC)c(OC)cc12, the T/C [6] was 102 % of control, the T/C (dose: 200.0 mg/kg/injection, schedule: Q04DX004 (ip), vehicle: Klucel (hydroxypropylcellulose) (HPC)) was 119 % of control and the T/C (dose: 400.0 mg/kg/injection, schedule: Q04DX004 (ip), vehicle: Klucel (hydroxypropylcellulose) (HPC)) was 98 % of control. For the same compound, the T/C (dose: 800.0 mg/kg/injection, schedule: Q04DX004 (ip), vehicle: Klucel (hydroxypropylcellulose) (HPC)) was 102 % of control.
In the case of CO[C@H](/C(C)=C/C=C/C(C)=C/c1coc(C)n1)[C@H](C)[C@H]1C[C@@H](O)[C@@]2(C)O[C@H]2/C=C/[C@@H](C)[C@@H]2C[C@@H](CC(=O)O2)C[C@H]2O[C@@H]2C(=O)O1, the T/C (dose: 0.06 mg/kg/injection, schedule: Q04DX004 (ip), vehicle: other) is reported as 110 % of control, the T/C (dose: 0.09 mg/kg/injection, schedule: Q04DX004 (ip), vehicle: Klucel (hydroxypropylcellulose) (HPC)) is reported as 116 % of control and the T/C (dose: 0.09 mg/kg/injection, schedule: Q04DX004 (ip), vehicle: other) is reported as 108 % of control and 113 % of control. For the same compound, the T/C (dose: 0.12 mg/kg/injection, schedule: Q04DX004 (ip), vehicle: Klucel (hydroxypropylcellulose) (HPC)) was 118 % of control, the T/C (dose: 0.13 mg/kg/injection, schedule: Q01DX005 (sc), vehicle: other) was 109 % of control and the T/C (dose: 0.13 mg/kg/injection, schedule: Q04DX004 (ip), vehicle: Klucel (hydroxypropylcellulose) (HPC)) was 115 % of control and 121 % of control. For the same compound, the T/C (dose: 0.13 mg/kg/injection, schedule: Q04DX004 (ip), vehicle: other) was 110 % of control, the T/C (dose: 0.13 mg/kg/injection, schedule: Q04DX004 (iv), vehicle: other) was 112 % of control and the T/C (dose: 0.2 mg/kg/injection, schedule: Q01DX001 (sc), vehicle: other) was 102 % of control. The T/C (dose: 0.2 mg/kg/injection, schedule: Q01DX005 (sc), vehicle: other) was 114 % of control, the T/C (dose: 0.2 mg/kg/injection, schedule: Q01DX013 (ip), vehicle: other) was 162 % of control and the T/C (dose: 0.2 mg/kg/injection, schedule: Q04DX004 (ip), vehicle: Klucel (hydroxypropylcellulose) (HPC)) was 119 % of control. For the same compound, the T/C (dose: 0.2 mg/kg/injection, schedule: Q04DX004 (ip), vehicle: other) was 115 % of control and 121 % of control and 122 % of control, the T/C (dose: 0.2 mg/kg/injection, schedule: Q04DX004 (iv), vehicle: other) was 110 % of control and the T/C (dose: 0.25 mg/kg/injection, schedule: Q04DX004 (ip), vehicle: Klucel (hydroxypropylcellulose) (HPC)) was 118 % of control. The T/C (dose: 0.3 mg/kg/injection, schedule: Q01DX001 (sc), vehicle: other) was 105 % of control, the T/C (dose: 0.3 mg/kg/injection, schedule: Q01DX005 (sc), vehicle: other) was 115 % of control and the T/C (dose: 0.3 mg/kg/injection, schedule: Q01DX013 (ip), vehicle: other) was 163 % of control. The T/C (dose: 0.3 mg/kg/injection, schedule: Q04DX004 (ip), vehicle: Klucel (hydroxypropylcellulose) (HPC)) was 123 % of control, the T/C (dose: 0.3 mg/kg/injection, schedule: Q04DX004 (ip), vehicle: other) was 123 % of control and the T/C (dose: 0.3 mg/kg/injection, schedule: Q04DX004 (iv), vehicle: other) was 117 % of control. The T/C (dose: 0.44 mg/kg/injection, schedule: Q04DX004 (iv), vehicle: other) was 122 % of control, the T/C (dose: 0.45 mg/kg/injection, schedule: Q01DX001 (sc), vehicle: other) was 109 % of control and the T/C (dose: 0.67 mg/kg/injection, schedule: Q01DX001 (sc), vehicle: other) was 99 % of control. The T/C (dose: 0.67 mg/kg/injection, schedule: Q04DX004 (ip), vehicle: Klucel (hydroxypropylcellulose) (HPC)) was 150 % of control, the T/C (dose: 1.0 mg/kg/injection, schedule: Q01DX001 (sc), vehicle: other) was 104 % of control and the T/C (dose: 1.0 mg/kg/injection, schedule: Q04DX004 (ip), vehicle: other) was 169 % of control. For the same compound, the T/C (dose: 1.5 mg/kg/injection, schedule: Q01DX001 (sc), vehicle: other) was 110 % of control, the T/C (dose: 1.5 mg/kg/injection, schedule: Q04DX004 (ip), vehicle: Klucel (hydroxypropylcellulose) (HPC)) was 161 % of control and the T/C (dose: 0.67 micrograms per hour, schedule: Q#X X024 (sc), vehicle: other) was 122 % of control. For the same compound, the T/C (dose: 0.67 micrograms per hour, schedule: Q#X X072 (sc), vehicle: other) was 152 % of control, the T/C (dose: 1.0 micrograms per hour, schedule: Q#X X072 (sc), vehicle: other) was 150 % of control and the T/C (dose: 55.6 micrograms/kg/injection, schedule: Q03HX008 (sc), vehicle: other) was 110 % of control. For the same compound, the T/C (dose: 83.4 micrograms/kg/injection, schedule: Q03HX008 (sc), vehicle: other) was 118 % of control, the T/C (dose: 125.0 micrograms/kg/injection, schedule: Q03HX008 (sc), vehicle: other) was 123 % of control and the T/C (dose: 281.0 micrograms/kg/injection, schedule: Q03HX008 (sc), vehicle: other) was 120 % of control.
